Experimental data published in patent publication US20080132689A1, “Labile Linkage for Compound Delivery to a Cell” (priority 2003, published 2008).

Tests used:
[1] = Measurement of acetal kinetics (rate of acetal hydrolysis in buffered solutions, by absorbance); format: physicochemical
Source text: To illustrate the rate of cleavage of several example ortho carboxy phenol derived acetals, we synthesized the molecules 1-3 (shown in FIG. 2) and measured the rates of acetal hydrolysis for each at pH 5.2-7.3. • Acetal 1. R′, R=alkyl; and R1, R2, R3, R4=hydrogen • Acetal 2. R′, R=alkyl; R1, R4=hydrogen; R2=carboxyl (carbon-containing group); R3=hydroxyl (heteroatom) • Acetal 3. R′=alkyl; R, R2, R3, R4=hydrogen; and R1=carboxyl (carbon-containing group)
To determine the rate of acetal hydrolysis, compounds 1-3 were added to buffered solutions (pH 7-8 with 5 mM HEPES, or pH 5-7 with 5 mM acetate) at various pH values and the absorbance of the solution was measured as a function of time (λ=302 nm for 1 and 2 and 310 nm for 3). The rate constant was determined by determining the slope of the line derived from plotting ln[1-((A∞-At)/(A∞-AO))] as a function of time t, where A∞ is absorbance after>3 hours of hydrolysis, At is the absorbance at time t, and AO is the initial absorbance. The half-life of the hydrolysis equals ln[2] divided by the rate constant.

[2] = test system: Hepa mouse hepatoma cells; assay: DNA transfection with crosslinked pCIluc/DW921 complexes, luciferase expression; format: cell-based; details: pCIluc 10 μg/mL, DW921 100 μg/mL, 48 h, average of two wells
Procedure: To a solution of plasmid DNA pCIluc (10 μg/mL, 0.075 mM in phosphate, 2.6 μg/μL pCIluc; prepared according to Danko et al. 1997) in 0.5 mL of 150 mM NaCl and 5 mM TAPS pH 9 was added 100 μg/mL DW921. The complexes were then reacted with glutaraldehyde, periodate oxidized phenyl glucoside (another crosslinker containing a labile bond), or periodate oxidized salicylic galactoside at 1, 2, 4, 8, or 16 μg/mL. The complexes were then added (200 μL) to wells containing Hepa mouse hepatoma cells in Dulbecco's modified Eagle's Media containing 10% fetal bovine serum. The cells were allowed to incubate for 48 h. The cells were then harvested and assayed for luciferase expression as previously reported. The amount of transfection was reported in relative light units and is the average transfection for two separate wells of cells.

## CC(C)CCOC(C)Oc1ccccc1C(=O)O (centres unmarked) [Acetal 1]
[1]; pH 7.3
  half-life (minutes) of acetal hydrolysis: 1.0 min

## O=CCCCC=O [glutaraldehyde]
[2]; 1 μg/mL dialdehyde crosslinker
  Relative Light Units: 915 Relative Light Units
[2]; 2 μg/mL dialdehyde crosslinker
  Relative Light Units: 620 Relative Light Units
[2]; 4 μg/mL dialdehyde crosslinker
  Relative Light Units: 1,400 Relative Light Units
[2]; 8 μg/mL dialdehyde crosslinker
  Relative Light Units: 590 Relative Light Units
[2]; 16 μg/mL dialdehyde crosslinker
  Relative Light Units: 565 Relative Light Units

## CC(C)[C@@H]1CC[C@@H](C)C[C@H]1OCOc1c(C(=O)O)cccc1C(=O)O [Acetal 3]
[1]; pH 5.2
  half-life (minutes) of acetal hydrolysis: 0.22 min
[1]; pH 6.5
  half-life (minutes) of acetal hydrolysis: 4.7 min
